Assay results reported in PMC7596085, “The pathogenic S688Y mutation in the ligand-binding domain of the GluN1 subunit regulates the properties of NMDA receptors” (Scientific Reports, 2020).
Where two headings read alike, the source gives them in different places.

Assays:
[1] = target: T1, hippocampal neurons expressing YFP-hGluN1-1a (Rattus norvegicus, UniProt P35439, I267L/M415L/N159S/R212K); assay: NMDA-induced excitotoxicity, hippocampal neurons expressing YFP-hGluN1-1a; type: cell-based; details: 1 h treatment, measured 23 h later
T1 construct: expressed in transfected cells; host or cells: primary rat hippocampal neurons (E18 Wistar), lentiviral infection with shRNA knock-down of endogenous GluN1
Procedure: (§1) Excitotoxicity was measured 23 h after treatment by staining cells with the nuclear marker Hoechst 33,342 and then performing complex image analysis (Fig. 6a,b; see "Methods").
(§2) Excitotoxicity was induced as described previously. In brief, the cultured neurons were incubated overnight in 10% MEM (Thermo Fisher Scientific) and 90% salt-glucose (SG) medium containing 114 mM NaCl, 0.219% NaHCO3, 5.292 mM KCl, 1 mM MgCl2, 2 mM CaCl2, 10 mM HEPES, 30 mM glucose, […], and 0.1% phenol red. The following day, the media was replaced with 100% SG and the indicated concentrations of agonists/co-agonists were added to the neurons. […] Nuclear area was measured using ImageJ software (v. 1.52p), and custom-made macro scripts were used to automatically measure only the nuclei of infected cells (identified by YFP expression). […] The ratio of the number of cells in each group was then used to estimate the effects of mixing the two distributions and is expressed as the ratio of pyknotic and non-pyknotic cells. The percentage of pyknotic cells in each condition was then calculated as the number of cells classified as pyknotic divided by the total number of cells in that condition.

[2] = test system: hippocampal neurons expressing YFP-hGluN1-1a-S688Y; assay: NMDA-induced excitotoxicity, hippocampal neurons expressing YFP-hGluN1-1a-S688Y; type: cell-based, rat; details: 1 h treatment, measured 23 h later
Procedure: as §1, §2

[3] = test system: hippocampal neurons expressing YFP-hGluN1-1a-S688Y; details: steady-state concentration-response, in the presence of 1 mM NMDA
[4] = test system: hippocampal neurons expressing YFP-hGluN1-1a
[5] = test system: hippocampal neurons expressing YFP-hGluN1-1a; details: steady-state concentration-response, in the presence of 1 mM NMDA
hGluN1-4a-S688Y/hGluN3A = hGluN1-4a-S688Y/hGluN3A vs hGluN1-4a/hGluN3A, peak response
[6] = test system: hippocampal neurons expressing YFP-hGluN1-1a-S688Y; details: 10 µM glycine together with 100 µM NMDA
GluN1 S688A mutation = details: S688A mutation vs wild type; cited from earlier work
[7] = 10 µM co-agonist in the presence of 100 µM NMDA

For `N[C@H](CO)C(=O)O` [D-serine], the “neuronal cell death (% of d.n., pyknotic nuclei)” value ([1]; 10 µM co-agonist alone) was “only a small degree of cell death”, the “neuronal cell death / excitotoxicity (% of d.n., pyknotic nuclei)” value [1, 7] was ~100% and the “neuronal cell death (% of d.n., pyknotic nuclei)” value ([2]; 10 µM co-agonist alone) was “only a small degree of cell death”. The “neuronal cell death / excitotoxicity (% of d.n., pyknotic nuclei)” value [2, 7] was “significantly reduced cell death”.

With `NCC(=O)O` [glycine] the EC50 [3] was 220 µM, the “Hill coefficient (h)” value [3] was 0.82 ± 0.06 and the EC50 ([3]; listed as Glycine) was 219 ± 6.11 µM. The “intracellular Ca2+ (Fura-2 F340/F380)” value ([4]; 10 µM glycine together with 100 µM NMDA) was “robust increase”, the “intracellular Ca2+ (Fura-2 F340/F380)” value ([4]; 1000 µM glycine together with 100 µM NMDA) was “robust increase” and the EC50 [5] was 0.2 µM. For the same molecule, the “Hill coefficient (h)” value [5] was 1.15 ± 0.05, the EC50 ([5]; listed as Glycine) was 0.17 ± 0.02 µM and the “decrease in glycine potency compared to wild-type receptors” value (hGluN1-4a-S688Y/hGluN3A) was “~ twofold”. The “intracellular Ca2+ (Fura-2 F340/F380)” value [6] was “no measurable effect” and the “reduction in glycine potency” value (GluN1 S688A mutation) was “four-fold”.
